Values after ≈ are worked out from the molar mass of the structure shown.
Legend:
[1] = molecular target: T1, Dihydroorotate dehydrogenase (quinone), mitochondrial (Homo sapiens, UniProt Q02127); details: dose 100.0 nM, time 30.0 min
[2] = molecular target: T1, Dihydroorotate dehydrogenase (quinone), mitochondrial
Description: Inhibition of human DHODH using dihydroorotate substrate preincubated for 30 mins followed by substrate addition by DCIP based microplate reader analysis

[3] = system: Raji; test: Antiproliferative activity against human Raji cells assessed as cell growth inhibition incubated for 96 hrs by MTT assay; type: functional, cell-based
[4] = system: L02; test: cells; type: ADME, cell-based; details: Homo sapiens, L02, 96 h
Description: Cytotoxicity against human L02 cells assessed as cell growth inhibition incubated for 96 hrs by MTT assay

[5] = physchem; details: aqueous
Description: Aqueous solubility of compound by UPLC method

[6] = in vitro; details: human, L02 cells and Raji cells
Description: Selectivity index, ratio of IC50 for human L02 cells to IC50 for human Raji cells

[7] = system: HCT-116; test: Antiproliferative activity against human HCT-116 cells assessed as cell growth inhibition incubated for 96 hrs by MTT assay; type: functional, cell-based; details: HCT-116, 96 h
[8] = system: A549; test: Antiproliferative activity against human A549 cells assessed as cell growth inhibition incubated for 96 hrs by MTT assay; type: functional, cell-based; details: A549, 96 h
[9] = system: K562; test: Antiproliferative activity against human K562 cells assessed as cell growth inhibition incubated for 96 hrs by MTT assay; type: functional, cell-based; details: K562, 96 h
[10] = system: A-375; test: Antiproliferative activity against human A-375 cells assessed as cell growth inhibition incubated for 96 hrs by MTT assay; type: functional, cell-based; details: A-375, 96 h
[11] = system: SK-MEL-28; test: Antiproliferative activity against human SK-MEL-28 cells assessed as cell growth inhibition incubated for 96 hrs by MTT assay; type: functional, cell-based; details: SK-MEL-28, 96 h

T1 sequence (Q02127 whole entry): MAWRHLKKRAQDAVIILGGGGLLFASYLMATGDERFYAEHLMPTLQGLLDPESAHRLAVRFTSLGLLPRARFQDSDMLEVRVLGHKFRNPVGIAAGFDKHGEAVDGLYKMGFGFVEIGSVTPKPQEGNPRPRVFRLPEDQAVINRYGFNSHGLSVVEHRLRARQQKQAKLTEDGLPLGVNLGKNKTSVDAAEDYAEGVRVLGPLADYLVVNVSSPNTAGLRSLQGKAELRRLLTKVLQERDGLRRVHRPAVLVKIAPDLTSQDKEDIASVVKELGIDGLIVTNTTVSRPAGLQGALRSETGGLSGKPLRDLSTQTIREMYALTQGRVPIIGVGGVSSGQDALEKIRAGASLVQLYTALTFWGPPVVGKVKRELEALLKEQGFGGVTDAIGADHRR

SMILES | inhibition [1] [%] | IC50 [2] [nM] | also measured
C/C(O)=C(\C#N)C(=O)Nc1cc(OC(C)C)c(C(=O)Nc2ccc(F)cc2)cc1F | 7.5 |  | 
C/C(O)=C(\C#N)C(=O)Nc1cc(OC(C)C)c(C(=O)Nc2ccccc2Cl)cc1F | 62.7 | 47.2 | 
COc1cccc(-c2cc(F)c(Nc3ncccc3C(=O)O)c(F)c2)c1 [ASLAN-003] | 66.8 |  | IC50 [7]: 5100 nM; IC50 [8]: 900 nM; IC50 [3]: 300 nM; IC50 [9]: 2700 nM; IC50 [10]: 700 nM; IC50 [11]: 1300 nM; IC50 [4]: 487 nM
C/C(O)=C(\C#N)C(=O)Nc1cc(OC(C)C)c(C(=O)Nc2cccc(F)c2)cc1F | 22.1 |  | 
C/C(O)=C(\C#N)C(=O)Nc1cc(OC(C)C)c(C(=O)Nc2ccc(F)c(Cl)c2)cc1F | 4.9 |  | 
COc1ccccc1NC(=O)c1cc(F)c(NC(=O)/C(C#N)=C(/C)O)cc1OC(C)C | 5.3 |  | 
C/C(O)=C(\C#N)C(=O)Nc1cc(OC(C)C)c(C(=O)Nc2c(Cl)cccc2Cl)cc1F | 89.4 | 13.1 | IC50 [3]: 450 nM; IC50 [4]: 2620 nM; selectivity ratio [6]: 5.8

Now from value to compound, other results behind:

inhibition [1] [%] | IC50 [2] [nM] | SMILES | also measured
27.4 |  | COc1cc(NC(=O)/C(C#N)=C(/C)O)c(F)cc1C(=O)Nc1c(F)cccc1F | 
67.7 | 31.1 | COc1cc(NC(=O)/C(C#N)=C(/C)O)c(F)cc1C(=O)Nc1c(F)cccc1Cl | 
94.4 | 6.2 | C/C(O)=C(\C#N)C(=O)Nc1cc(O[C@@H](C)C(F)(F)F)c(C(=O)Nc2c(Cl)cccc2Br)cc1F | IC50 [3]: 32.2 nM; IC50 [4]: 506 nM; solubility [5]: 2900 µg/mL (≈ 5.14 mM); selectivity ratio [6]: 15.8
78.5 | 29.5 | COc1cc(NC(=O)/C(C#N)=C(/C)O)c(F)cc1C(=O)Nc1c(F)cccc1Br | 
70.7 | 22.4 | C/C(O)=C(\C#N)C(=O)Nc1cc(OC(C)C)c(C(=O)Nc2c(F)cccc2Cl)cc1F | IC50 [7]: 7300 nM; IC50 [8]: 900 nM; IC50 [3]: 300 nM; IC50 [9]: 2300 nM; IC50 [10]: 1100 nM; IC50 [11]: 300 nM; solubility [5]: 465 µg/mL (≈ 1.03 mM)
68.5 | 41.5 | C/C(O)=C(\C#N)C(=O)Nc1cc(OC(C)C)c(C(=O)Nc2ccccc2Br)cc1F | 
70.5 | 36.2 | C/C(O)=C(\C#N)C(=O)Nc1cc(OC(C)C)c(C(=O)Nc2c(F)cccc2F)cc1F | 

From ChEMBL document CHEMBL5053556, “Design, Synthesis, and Biological Evaluation of a Novel Series of Teriflunomide Derivatives as Potent Human Dihydroorotate Dehydrogenase Inhibitors for Malignancy Treatment” (J Med Chem, 2021)
